Reference: ChEMBL document CHEMBL3507680, “University of Dundee, Gates Library screen for HepG2 cell viability”

Experiment: Human HepG2 cell viability assay in 384 well format
Type: toxicity, cell-based
Set-up: dose 125 nL, time 70.5 hour; concentration not given beside the values
Details: HepG2 cells, read-out: Inhibition

Row | SMILES | cytotoxicity at 70.5 h [%]
1 | O=C(CN1CCS(=O)(=O)CC1)NC1CCCCc2ccccc21 (stereo not given) | -1.09
2 | CCc1cc(=O)[nH]c(-c2ccc(NCCc3ccc(O)cc3)nc2)n1 | -3.24
3 | Cn1c(C2CC2)nc2cc(NC(=O)C3(O)CCCC3)ccc21 | -4.26
4 | Cc1c(NCc2ccc(C#N)cc2)cccc1S(=O)(=O)NC1CC1 | 1.12
5 | Cc1c(NCc2cccc(C#N)c2)cccc1S(=O)(=O)NC1CC1 | 4.95
6 | CC(CS(C)(=O)=O)N(C(=O)CCc1ccsc1)C1CC1 (stereo not given) | -4.58
7 | C1CCC(CSc2nnnn2C2CC2)OC1 (stereo not given) | -0.703
8 | Cc1ccc(C(=O)N2CCN(C(=O)C(C)n3ccnc3)CC2)cc1F (stereo not given) | -5.92
9 | CN(C(=O)CCC(F)(F)F)c1cccc2ncccc12 | 42.6
10 | Cc1ccc(C(=O)NCc2ccc(N(C)C)cc2)cn1 | -10.4
11 | Cc1ccccc1CS(=O)(=O)Cc1nc(C2CC2)no1 | -3.39
12 | O=C(Cc1ccc2c(c1)CCO2)Nc1cccnc1-n1cncn1 | 16.3
13 | COc1ccc(N(C)C(=O)c2ccc(Cl)c(S(C)(=O)=O)c2)cn1 | -2.77
14 | O=C(NCCN1CCOCC1)c1ccc(OCc2ccccc2)nc1 | -1.05
15 | Cc1cccc(NC(=O)CN(C)C(=O)c2ccc(OC(C)C)nc2)n1 | -2.88
16 | O=C(Nc1ccc(Cl)cn1)C1CCCN(Cc2ccccn2)C1 (stereo not given) | -1.12
17 | CCc1noc(CS(=O)(=O)Cc2ccccc2C)n1 | 15
18 | CCc1noc(CS(=O)(=O)Cc2nc(Cc3ccccc3)no2)n1 | -5.38
19 | Cc1ccc(C(=O)N(C)CC(=O)Nc2cccc(C)n2)cn1 | -6.04
20 | Cc1nn(C)c(C)c1NC(=O)CN1CCCC1c1noc(C(C)C)n1 (stereo not given) | -5
21 | CCOc1ccc(NC(C)C(=O)NCCc2cccs2)cc1CO (stereo not given) | -3.5
22 | COc1c(C2CCCN2C(=O)c2ccoc2C)c(C)nn1C (stereo not given) | 7.26
23 | CC(NC(=O)CCCOc1cccc(F)c1)c1ccncc1 (stereo not given) | -4.8
24 | CCn1ccnc1CN1CCN(Cc2cnc(C)cn2)CC1C (stereo not given) | 4.47

Row | SMILES | cytotoxicity at 70.5 h [%]
25 | O=C(NCCCOCc1ccco1)c1cccnc1N1CCOCC1 | 6.19
26 | CCn1ccnc1CN1CCN(CCCS(C)(=O)=O)CC1C (stereo not given) | 12.1
27 | Cc1cc(C)n(CC2CN(Cc3cccc(C#N)c3)CCO2)n1 (stereo not given) | -3.79
28 | NC(=O)c1ccc(CN2CCCC(N3CCCCCC3)C2)cc1 (stereo not given) | 1.67
29 | CCOc1ncccc1C(=O)N1CCCC(n2nc(C)cc2C)C1 (stereo not given) | -5.39
30 | Cc1cnn(CC2CCCN2C(=O)Cn2nc(C)c(Cl)c2C)c1 (stereo not given) | -1.94
31 | Cc1cc(C)cc(NC(=O)CC2CN(Cc3ccccc3)CCO2)c1 (stereo not given) | -4.17
32 | Cc1nc(C)n(C2CCCN(C(=O)CCn3ccnn3)C2)n1 (stereo not given) | 0.306
33 | CCC1(CNC(=O)NC(c2nnc3n2CCC3)C(C)C)CCC1 (stereo not given) | 35.2
34 | CNC(=O)N1CCCCC1c1nnc2n1CCCC2 (stereo not given) | -0.585
35 | O=C(CC1CN(Cc2ccccc2)CCO1)Nc1ccsc1 (stereo not given) | 8.64
36 | Cc1n[nH]c(C)c1CNC(=O)N1CCCC(Cc2nccn2C)C1 (stereo not given) | 0.74
37 | CN(C)CC1CN(c2ncnc3ccsc23)CCO1 (stereo not given) | 8.47
38 | CNc1cc(N2CCCC2CNCc2cccc(C#N)c2)ncn1 (stereo not given) | 1.28
39 | Cc1ncsc1CNc1cccc(OCCN2CCCC2)c1 | 1.28
40 | Cc1ccc(C2CN(C(=O)c3c(C)cc(C)[nH]c3=O)CCO2)c(C)c1 (stereo not given) | 9.82
41 | O=C(NCCSCc1ccc(Br)s1)C1CCCN(c2cnccn2)C1 (stereo not given) | 10.7
42 | CCCc1nc(C)c(C(=O)NC2CCN(CC(N)=O)CC2)s1 | -11.5
43 | CC(NCc1ccccn1)c1cc2c(cc1Br)OCCO2 (stereo not given) | -4.31
44 | O=C(NS(=O)(=O)Cc1ccc(F)cc1)C1CCc2ccccc21 (stereo not given) | 3.78
45 | CCc1ncc2c(n1)CN(Cc1nc3c(F)cccc3[nH]1)CC2 | -5.3
46 | COc1cc(CNCCNC(=O)c2ccc(O)cc2)ccc1SC | 55.5
47 | O=C(NCCc1ccccc1Cl)NCC1(O)CCSC1 (stereo not given) | 3.74
48 | O=C(NCc1ccc(Cl)cc1Cl)NCC1(O)CCSC1 (stereo not given) | 18.5

Row | SMILES | cytotoxicity at 70.5 h [%]
49 | CC(C)c1nnc(CNc2ccc(SC(F)(F)F)cc2)o1 | 36.9
50 | COc1ccnc(NC(=O)c2cnccn2)c1 | -7.62
51 | O=C(c1ccc(=O)[nH]n1)N1CCc2ccccc21 | -0.117
52 | CCCc1noc(CN(C)Cc2ccc3c(c2)OCO3)n1 | 17.8
53 | COc1c(C(=O)N2CCOC(c3cccs3)C2)c(C)nn1C (stereo not given) | -5.91
54 | c1cc(NCc2cscn2)cc(OCCN2CCCCC2)c1 | -2.11
55 | Cc1csc(CNc2cccc(OCCN3CCCC3)c2)n1 | 19.9
56 | CC(NCc1cccc2c1OCCO2)c1cc2c(cc1Br)OCCO2 (stereo not given) | -7.55
57 | CCN(C(c1cccnc1)c1ccc(F)cc1F)S(C)(=O)=O (stereo not given) | -12.1
58 | CCN(Cc1nc2c(cnn2C)c(=O)[nH]1)c1cccc(C)c1C | -0.49
59 | CN(CCc1ccncc1)C(=O)C1CSCN1C(=O)CC(C)(C)C (stereo not given) | -12.5
60 | CCc1nnc2n1CCN(Cc1noc(-c3cccc(C)c3)n1)C2 | -2.11
61 | CCc1cnccc1C(=O)NC1CCN(C(=O)C2CCCCC2)CC1 | -8.95
62 | CC(O)CN1CCC(CN(C)CCC(=O)NC2CCCC2)CC1 (stereo not given) | -1.49
63 | CC(c1nnc(-c2cccs2)o1)N1CCc2cncnc2C1 (stereo not given) | -1.71
64 | CC(C)=CCN1CCN(C(=O)C2CCS(=O)(=O)C2)CC1 (stereo not given) | 0.157
65 | O=C1COc2cc(C(=O)NCc3ccc(Cl)s3)ccc2N1 | -2.5
66 | CS(=O)(=O)NC1CCCN(C(=O)Nc2ccccc2Cn2cccn2)C1 (stereo not given) | 14.4
67 | CCc1ccc(CN(C(=O)CCn2cc(S(N)(=O)=O)cn2)C2CC2)cc1 | -2.81
68 | NS(=O)(=O)c1cnn(CCC(=O)N(Cc2ccccc2)C2CC2)c1 | -7.26
69 | Cc1nn(C)c(N(C)C)c1CNC1CCCCNC1=O (stereo not given) | -4.25
70 | O=c1oc2ccccc2n1CCCN1CCCC1c1ccc(O)cc1 (stereo not given) | -1.72
71 | CC(C)(C(N)=O)S(=O)(=O)c1ccc(Br)cc1 | -6.61
72 | NS(=O)(=O)c1cnn(CCC(=O)N(C2CCCCC2)C2CC2)c1 | -3.97

Row | SMILES | cytotoxicity at 70.5 h [%]
73 | Cc1ccc(N2CCCN(C(=O)c3n[nH]c4c3CCC4)CC2)nn1 | 1.32
74 | O=C(Nc1ccccc1Cn1cccn1)N1CCC(N2CCCC2)C1 (stereo not given) | -2.57
75 | CCOc1ccc(S(=O)(=O)C(C)C(=O)Nc2cc(C)no2)cc1 (stereo not given) | -4.64
76 | Cc1cc(CNC2(c3ccccc3)CCCCC2)on1 | -0.993
77 | Cc1nc(O)ccc1C(=O)NCc1ncoc1C | -2.74
78 | Cc1[nH]ccc1C(=O)NCc1ncoc1C | -2.23
79 | CN(C)c1cccc(CNCc2ccc(N3CCOCC3)cc2)c1 | 14
80 | CC(O)CN1CCC(CN(C)CC(=O)NC2CCOCC2)CC1 (stereo not given) | -2.54
81 | O=C(Nc1cccc(Cn2cccn2)c1)N1CCCC(N2CCCC2)C1 (stereo not given) | -4.22
82 | Cn1cc(C2CCCN2CCCn2c(=O)oc3ccccc32)cn1 (stereo not given) | 12.6
83 | CN(Cc1cccs1)c1cc(N2CCCC2CO)ncn1 (stereo not given) | -1.74
84 | CCN(CC)S(=O)(=O)CCNc1nnc(C(C)C)s1 | 6.99
85 | CC(C)CCNc1nnc(C(C)C)s1 | -3.84
86 | O=S(=O)(NCCSc1nncn1C1CC1)c1ccccc1 | 30.9
87 | CC(C)(C)CCN1CCN(c2snc(Cl)c2C#N)CC1 | 4.63
88 | Cc1cnn(CC(C)NCc2c(C)nn(Cc3ccccc3)c2C)c1 (stereo not given) | -4.31
89 | CN(C)C(=O)Cc1ccccc1NCc1cc(C#N)ccc1F | -2.64
90 | CC(C)c1nc(/C=C/c2cnn(-c3ccc(Cl)cc3)c2)ncc1C(=O)O | 22.7
91 | Cc1[nH]ccc1C(=O)N1CCCN1C(=O)OC(C)(C)C | 0.542
92 | CC(C)(NC(=O)Cc1ccccc1F)C(C)(C)C(=O)O | -0.854
93 | O=C(CCn1nnc2ccccc2c1=O)N(CC1CCOC1)C1CC1 (stereo not given) | 1.53
94 | CCn1nc(C)c(CNCCn2cc(C)cn2)c1C | -4.46
95 | CCC(CC)n1ncc(C(=O)NS(=O)(=O)c2ccsc2)c1C | 21.2
96 | CCCN1CCC(N2CCN(c3cc(C)nc(COC)n3)CC2)CC1 | 3.64

Row | SMILES | cytotoxicity at 70.5 h [%]
97 | Cc1cc(CN(CCO)c2ccc(Br)cc2)on1 | -0.419
98 | CC(=O)N(Cc1noc(C)n1)C1CCN(CC(=O)N(C)C2CC2)C1 (stereo not given) | -2.89
99 | CN(CCc1ccccn1)C(=O)C(O)c1cc(Cl)cc(Cl)c1 (stereo not given) | 42.8
100 | Cc1cc(C)cc(OCC(=O)N2CCCC2)c1 | -21.3
101 | Cc1cc(C)cc(OCC(=O)N2CCC2)c1 | -22.1
102 | CC(Cn1cccn1)NC(=O)c1ccsc1 (stereo not given) | -11.4
103 | CCCn1cc(NC(=O)c2cccc3cccnc23)ccc1=O | -17.8
104 | NC(=O)CN1CCCN(C(=O)COc2cccc(F)c2)CC1 | -25.4
105 | c1cnn(CCNCc2cnc(N3CCOCC3)nc2)c1 | 41.2
106 | Cc1nccn1CCCNc1ccc(Cl)c(C#N)n1 | -24.8
107 | O=C1CCC(C(=O)Nc2ccc(=O)n(Cc3ccc(Cl)c(Cl)c3)c2)N1 (stereo not given) | -16.6
108 | COCc1noc(-c2cc(Cl)c3c(c2)OCCCO3)n1 | -8.58
109 | COCCc1noc(-c2cc(Cl)c3c(c2)OCCCO3)n1 | -19.1
110 | COc1ccc2c(OCC(=O)NC(C)(C)C)ccnc2c1 | -18.7
111 | CS(=O)(=O)CCSCc1cc(F)cc2cccnc12 | -16.7
112 | COCC(C)NC(=O)CN1CCCC1 (stereo not given) | -23.1
113 | CC(C)c1nsc(N2CCOCC2)n1 | -27.4
114 | N#Cc1cccc(CS(=O)(=O)NCC(O)Cc2ccccc2)c1 (stereo not given) | -0.967
115 | CCc1nc(NS(=O)(=O)c2ccc(F)cc2C)no1 | -5.01
116 | CSCc1nc(C(C)(C)NC(=O)OC(C)(C)C)no1 | -7.03
117 | O=S(=O)(CCNCc1cccc2c1OCCO2)N1CCOCC1 | 5.04
118 | CCc1nc(C(=O)NCc2ccc(N3CCNC(=O)C3)c(F)c2)c[nH]1 | 5.08
119 | CCC(CNC(=O)c1cc(OC)ccc1Br)N1CCc2ccccc2C1 (stereo not given) | 7.55
120 | CCCNC(c1ccc(F)cc1)c1cccnc1 (stereo not given) | -19.4
